From patent publication US12606543B2, “Indole derivatives as serotonergic agents useful for the treatment of disorders related thereto” (priority 2023, dated 2026)
Where two headings read alike, the source gives them in different places.

How the values were obtained:
[1] = Pharmacokinetic studies in rat (i.v.); assay type: in vivo; details: male, Sprague-Dawley, plasma
Protocol: Animals: Male Sprague-Dawley rats (˜225-350 g) from Charles River Labs were acclimatized for a minimum of 5 days prior to start of study procedures. Body weights were recorded on the day of dosing.
Any abnormalities were documented including presence/absence of wet dog shakes/back muscle contractions (WDS/BMC).
Dosing: Formulations were administered intravenously (i.v.) via the tail vein using a 25 G needle connected to a 1 cc syringe.
The exemplary compounds of Formula (I) were freshly prepared at the appropriate concentrations in 5% Tween-80 in saline.
Blood collection time (h): 0, […], 1 and 4
Volume/time-point: ˜0.25 mL (saphenous vein)
Instrumentation: AB Sciex QTRAP 4000 or 6500 MS/MS system equipped with an LC system with a binary pump, a solvent degasser, a thermostated column compartment, and a multiplate autosampler.
Analysis software: Phoenix® WinNonlin® 8.3 (Pharsight, Certara, Mountainview, CA).
Analysis methods: non-compartmental analysis, linear up/log down trapezoidal rule.
PK parameters: t1/2 and AUC0-tlast was estimated.
The Compounds of Formula (I) were freshly prepared at the appropriate concentrations in 5% Tween-80 in saline.
Instrumentation: AB Sciex QTRAP 4000 or 6500 MS/MS system equipped with an LC system with a binary pump, a solvent degasser, a thermostated column compartment and a multiplate autosampler.
PK parameters: t1/2 and AUC0-tlast will be estimated.

[2] = Plasma protein binding by equilibrium dialysis, dog; assay type: in vitro ADME; details: for recovery at 6 h, 1 µM / fraction unbound at 6 h, 1 μM: Beagle; for recovery at 6 h, 1 µM: dog; for fraction unbound at 6 h, 1 μM: read-out: % Bound (converted)
Protocol: (§1) The final concentration of compound was 1 μM. The final concentration of DMSO was 0.5%. Ketoconazole was used as positive control in the assay.
(§2) The assay was performed in duplicate.
(§3) All calculations were carried out using Microsoft Excel. […] The percentages of bound compound were calculated as follows: […]
(§4) Ketoconazole was used as positive control in the assay.

[3] = Plasma protein binding by equilibrium dialysis, rat; details: for recovery at 6 h, 1 µM / fraction unbound at 6 h, 1 μM: rat; for fraction unbound at 6 h, 1 μM: plasma
Protocol: 1. The Frozen Plasma (Stored at −80° C.) was Thawed Immediately in a 37° C. Water Bath.
(§5) The working solution of test compounds and control compound was prepared in DMSO at the concentration of 200 μM, and then the working solution was spiked into plasma. The final concentration of compound was 1 μM. The final concentration of DMSO was 0.5%. Ketoconazole was used as positive control in the assay.
The dialysis membranes were soaked in ultrapure water for 60 minutes to separate strips, then in 20% ethanol for 20 minutes, finally in dialysis buffer for 20 minutes.
The dialysis set up was assembled according to the manufacturer's instruction. Each Cell was with 150 μL of plasma sample and dialyzed against equal volume of dialysis buffer (PBS). The assay was performed in duplicate. The dialysis plate was sealed and incubated in an incubator at 37° C. with 5% CO2 at 100 rpm for 6 hours. At the end of incubation, 50 μL of samples from both buffer and plasma chambers were transferred to wells of a 96-well plate.
50 μL of plasma was added to each buffer samples and an equal volume of PBS was supplemented to the collected plasma sample. 400 μL of precipitation buffer acetonitrile containing internal standards (IS, 200 nM labetalol, 100 nM tolbutamide and 100 nM ketoprofen) was added to precipitate protein and release compounds. Samples were vortexed for 2 minutes and centrifuged for 30 minutes at 3,220 g. Aliquot of 50 μL of the supernatant was diluted by 150 μL acetonitrile containing internal standards: ultra-pure H2O=1:1, and the mixture was used for LC-MS/MS analysis.
All calculations were carried out using Microsoft Excel. The concentrations of test compounds in the buffer and plasma chambers were determined from peak area ratios. The percentages of bound compound were calculated as follows: […]
as §5, with “[…].” for “μM.”

[4] = Plasma protein binding by equilibrium dialysis, mouse; assay type: in vitro ADME; details: for recovery at 6 h, 1 µM: CD-1, mouse, plasma; for fraction unbound at 6 h, 1 μM: CD-1, read-out: % Bound (converted)
Protocol: as §1, §2, §3, §4

[5] = iv, 1.19 mg/kg, rat plasma, i.v., dose 1.19 mg/kg, mean of 3 rats, read-out: Plasma concentration, Mean ± SD
[6] = iv, 1.19 mg/kg, rat plasma, i.v., dose 1.19 mg/kg, rat R01, read-out: Plasma concentration, R01
[7] = iv, 1.19 mg/kg, rat plasma, i.v., dose 1.19 mg/kg, rat R02, read-out: Plasma concentration, R02
[8] = iv, 1.19 mg/kg, rat plasma, i.v., dose 1.19 mg/kg, rat R03, read-out: Plasma concentration, R03
[9] = intravenous, dose per Dose column (1.32-2.09 mg/kg), first animal (R07/R04/R01/R10), read-out: Plasma concentration
[10] = intravenous, dose per Dose column (1.32-2.09 mg/kg), mean of 3 rats, read-out: Plasma concentration, Mean ± SD
[11] = intravenous, dose per Dose column (1.32-2.09 mg/kg), second animal (R08/R05/R02/R11), read-out: Plasma concentration
[12] = intravenous, dose per Dose column (1.32-2.09 mg/kg), third animal (R09/R06/R03/R12), read-out: Plasma concentration
[13] = dog plasma, equilibrium dialysis, 37° C., 6 hours
[14] = mouse plasma, equilibrium dialysis, 37° C., 6 hours

Q: Which results are given for CSc1ccc2[nH]cc(C[C@H]3CCCN3C)c2c1 [(R) I-1, (R)-3-((1-Methylpyrrolidin-2-yl)methyl)-5-(methylthio)-1H-indole]?
A: half-life ([1]; iv, 1.19 mg/kg, rat plasma, i.v. 1.19 mg/kg, mean of 3 rats, estimated from 2 points only, read-out: Apparent t1/2, Mean ± SD (converted)): 47.1 ± 10.4 min; AUC(0-t) ([1]; iv, 1.19 mg/kg, rat plasma, i.v. 1.19 mg/kg, mean of 3 rats, read-out: AUC0-tlast, Mean ± SD): 136 ± 22 ng·h/mL; half-life ([1]; iv, 1.19 mg/kg, rat plasma, i.v. 1.19 mg/kg, rat R01, estimated from 2 points only, read-out: Apparent t1/2, R01 (converted)): 58.5 min; AUC(0-t) ([1]; iv, 1.19 mg/kg, rat plasma, i.v. 1.19 mg/kg, rat R01, read-out: AUC0-tlast, R01): 151 ng·h/mL; half-life ([1]; iv, 1.19 mg/kg, rat plasma, i.v. 1.19 mg/kg, rat R02, estimated from 2 points only, read-out: Apparent t1/2, R02 (converted)): 37.9 min; AUC(0-t) ([1]; iv, 1.19 mg/kg, rat plasma, i.v. 1.19 mg/kg, rat R02, read-out: AUC0-tlast, R02): 111 ng·h/mL; half-life ([1]; iv, 1.19 mg/kg, rat plasma, i.v. 1.19 mg/kg, rat R03, estimated from 2 points only, read-out: Apparent t1/2, R03 (converted)): 44.9 min; AUC(0-t) ([1]; iv, 1.19 mg/kg, rat plasma, i.v. 1.19 mg/kg, rat R03, read-out: AUC0-tlast, R03): 147 ng·h/mL; concentration at 0.25 h [1, 5]: 109 ± 12.9 ng/mL; concentration at 0.25 h [1, 6]: 120 ng/mL; concentration at 0.25 h [1, 7]: 112 ng/mL; concentration at 0.25 h [1, 8]: 94.7 ng/mL; concentration at 1 h [1, 5]: 46.1 ± 18.1 ng/mL; concentration at 1 h [1, 6]: 42.3 ng/mL; concentration at 1 h [1, 7]: 30.3 ng/mL; concentration at 1 h [1, 8]: 65.8 ng/mL; concentration at 4 h [1, 5]: 3.96 ± 2.8 ng/mL; concentration at 4 h [1, 6]: 7.04 ng/mL; concentration at 4 h [1, 7]: 1.56 ng/mL; concentration at 4 h [1, 8]: 3.27 ng/mL; recovery at 6 h, 1 µM ([2]; Dog plasma, 1 μM, equilibrium dialysis 6 hours): 92.9%; fraction unbound at 6 h, 1 μM ([2]; Dog plasma, 1 μM, equilibrium dialysis 6 hours, 37° C.): 0.174; % Remaining @ 6 hours ([2]; Dog plasma, 1 μM, 6 hours, 37° C.): 95.50%; % Remaining @ 6 hours ([3]; Rat plasma, 1 μM, 37° C.): 105.76%; recovery at 6 h, 1 µM ([3]; SD): 103%; fraction unbound at 6 h, 1 μM ([3]; Sprague-Dawley): 0.534; recovery at 6 h, 1 µM ([4]; Mouse plasma, 1 μM, equilibrium dialysis 6 hours): 113%; fraction unbound at 6 h, 1 μM ([4]; Mouse plasma, 1 μM, equilibrium dialysis 6 hours, 37° C.): 0.521; % Remaining @ 6 hours ([4]; Mouse plasma, 1 μM, 6 hours, 37° C.): 112.85%

Q: Which results are given for COCCN1CCC[C@@H]1Cc1c[nH]c2ccc(OC)cc12 [(R) I-98, (R)-5-Methoxy-3-((1-(2-methoxyethyl)pyrrolidin-2-yl)methyl)-1H-indole]?
A: concentration at 0.25 h [1, 9]: 411 ng/mL; concentration at 0.25 h [1, 10]: 446 ± 34.1 ng/mL; concentration at 0.25 h [1, 11]: 479 ng/mL; concentration at 0.25 h [1, 12]: 449 ng/mL; concentration at 1 h [1, 9]: 128 ng/mL; concentration at 1 h [1, 10]: 113 ± 14.2 ng/mL; concentration at 1 h [1, 11]: 110 ng/mL; concentration at 1 h [1, 12]: 100 ng/mL; concentration at 4 h [1, 9]: 2.48 ng/mL; concentration at 4 h [1, 10]: 2.32 ± 0.139 ng/mL; concentration at 4 h [1, 11]: 2.25 ng/mL; concentration at 4 h [1, 12]: 2.23 ng/mL; half-life ([1]; iv, rat plasma, i.v., dose per Dose column, estimated from 2 points only, first animal (R07/R04/R01/R10), read-out: Apparent t1/2 (converted)): 30.8 min; half-life ([1]; iv, rat plasma, i.v., dose per Dose column, estimated from 2 points only, mean of 3 rats, read-out: Apparent t1/2, Mean ± SD (converted)): 30.4 ± 0.473 min; half-life ([1]; iv, rat plasma, i.v., dose per Dose column, estimated from 2 points only, second animal (R08/R05/R02/R11), read-out: Apparent t1/2 (converted)): 29.9 min; half-life ([1]; iv, rat plasma, i.v., dose per Dose column, estimated from 2 points only, third animal (R09/R06/R03/R12), read-out: Apparent t1/2 (converted)): 30.3 min; AUC(0-t) ([1]; iv, rat plasma, i.v., dose per Dose column, first animal (R07/R04/R01/R10), read-out: AUC0-tlast): 403 ng·h/mL; AUC(0-t) ([1]; iv, rat plasma, i.v., dose per Dose column, mean of 3 rats, read-out: AUC0-tlast, Mean ± SD): 409 ± 15.1 ng·h/mL; AUC(0-t) ([1]; iv, rat plasma, i.v., dose per Dose column, second animal (R08/R05/R02/R11), read-out: AUC0-tlast): 426 ng·h/mL; AUC(0-t) ([1]; iv, rat plasma, i.v., dose per Dose column, third animal (R09/R06/R03/R12), read-out: AUC0-tlast): 397 ng·h/mL; recovery at 6 h, 1 µM [2, 13]: 104%; fraction unbound at 6 h, 1 μM [2, 13]: 0.157; % Remaining @ 6 hours ([2]; dog plasma, 6 hours): 110.92%; fraction unbound at 6 h, 1 μM ([3]; SD): 0.569; recovery at 6 h, 1 µM ([3]; Sprague-Dawley (SD)): 88%; % Remaining @ 6 hours ([3]; rat plasma): 96.55%; recovery at 6 h, 1 µM [4, 14]: 96.4%; fraction unbound at 6 h, 1 μM [4, 14]: 0.632; % Remaining @ 6 hours ([4]; mouse plasma, 6 hours): 103.70%
